Values quoted from earlier work in patent US10045960B2, “Coating composition and medical device” (TERUMO KABUSHIKI KAISHA, priority 2012, dated 2018).

Conditions: hydropathy index according to Kyte and Doolittle, J. Mol. Biol., 157, 105-132 (1982)
In the case of NCCCC[C@H](N)C(=O)O [Lysine], the “H.I. (hydropathy index)” value is given as −3.9.
For N[C@@H](CCC(=O)O)C(=O)O [Glutamic acid], the “H.I. (hydropathy index)” value is listed as −3.5.
In the case of N[C@@H](Cc1ccc(O)cc1)C(=O)O [Tyrosine], the “H.I. (hydropathy index)” value is listed as −1.3.
For C[C@H](N)C(=O)O [Alanine], the “H.I. (hydropathy index)” value is listed as 1.8.
In the case of N=C(N)NCCC[C@H](N)C(=O)O [Arginine], the “H.I. (hydropathy index)” value is given as −4.5.
For N[C@@H](Cc1ccccc1)C(=O)O [Phenylalanine], the “H.I. (hydropathy index)” value is listed as 2.8.
In the case of N[C@@H](CO)C(=O)O [Serine], the “H.I. (hydropathy index)” value is listed as −0.8.
In the case of N[C@@H](Cc1c[nH]cn1)C(=O)O [Histidine], the “H.I. (hydropathy index)” value is given as −3.2.
In the case of CC[C@H](C)[C@H](N)C(=O)O [Isoleucine], the “H.I. (hydropathy index)” value is listed as 4.5.
For N[C@@H](Cc1c[nH]c2ccccc12)C(=O)O [Tryptophan], the “H.I. (hydropathy index)” value is listed as −0.9.
For CC(C)[C@H](N)C(=O)O [Valine], the “H.I. (hydropathy index)” value is listed as 4.2.
For NC(=O)C[C@H](N)C(=O)O [Asparagine], the “H.I. (hydropathy index)” value is given as −3.5.
For N[C@@H](CC(=O)O)C(=O)O [Aspartic acid], the “H.I. (hydropathy index)” value is given as −3.5.
For N[C@@H](CS)C(=O)O [Cysteine], the “H.I. (hydropathy index)” value is given as 2.5.
For CSCC[C@H](N)C(=O)O [Methionine], the “H.I. (hydropathy index)” value is given as 1.9.
In the case of C[C@@H](O)[C@H](N)C(=O)O [Threonine], the “H.I. (hydropathy index)” value is listed as −0.7.
